# In ChEMBL document CHEMBL1201862, “PubChem BioAssay data set” (2004):
# Active and inactive are the calls of the source.
# Assays:
# [1] = biological target: ADP-ribosylation factor GTPase-activating protein 1 (Rattus norvegicus, UniProt Q62848); experiment: Fluorescence polarization-based biochemical high throughput dose response screening assay to identify inhibitors of ADP-ribosylation factor GTPase activating protein 1 (ARFGAP1).; type: functional
# [2] = system: BJ; experiment: BJ-TERT fibroblast viability loss – cell-based, RAS-independent, luminescence, dose response (AID 1933); type: functional; conditions: Homo sapiens
# [3] = system: BJ; experiment: cells; type: functional, cell-based; conditions: Homo sapiens
# [4] = system: BJ; experiment: BJ-TERT-LT-ST fibroblast viability loss – cell-based, RAS-independent, luminescence, dose response (AID 1935); type: functional; conditions: Homo sapiens;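 also: BJ fibroblasts immortalized with TERT plus LT and ST oncogenes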
# [5] = DRD fibroblast viability loss – cell-based, non-viral oncogenic, luminescence, dose response (AID 1934); type: functional; conditions: Homo sapiens
# [6] = biological target: T1, Apoptotic protease-activating factor 1 (Homo sapiens, UniProt O14727); type: functional
# T1 sequence (O14727 whole entry): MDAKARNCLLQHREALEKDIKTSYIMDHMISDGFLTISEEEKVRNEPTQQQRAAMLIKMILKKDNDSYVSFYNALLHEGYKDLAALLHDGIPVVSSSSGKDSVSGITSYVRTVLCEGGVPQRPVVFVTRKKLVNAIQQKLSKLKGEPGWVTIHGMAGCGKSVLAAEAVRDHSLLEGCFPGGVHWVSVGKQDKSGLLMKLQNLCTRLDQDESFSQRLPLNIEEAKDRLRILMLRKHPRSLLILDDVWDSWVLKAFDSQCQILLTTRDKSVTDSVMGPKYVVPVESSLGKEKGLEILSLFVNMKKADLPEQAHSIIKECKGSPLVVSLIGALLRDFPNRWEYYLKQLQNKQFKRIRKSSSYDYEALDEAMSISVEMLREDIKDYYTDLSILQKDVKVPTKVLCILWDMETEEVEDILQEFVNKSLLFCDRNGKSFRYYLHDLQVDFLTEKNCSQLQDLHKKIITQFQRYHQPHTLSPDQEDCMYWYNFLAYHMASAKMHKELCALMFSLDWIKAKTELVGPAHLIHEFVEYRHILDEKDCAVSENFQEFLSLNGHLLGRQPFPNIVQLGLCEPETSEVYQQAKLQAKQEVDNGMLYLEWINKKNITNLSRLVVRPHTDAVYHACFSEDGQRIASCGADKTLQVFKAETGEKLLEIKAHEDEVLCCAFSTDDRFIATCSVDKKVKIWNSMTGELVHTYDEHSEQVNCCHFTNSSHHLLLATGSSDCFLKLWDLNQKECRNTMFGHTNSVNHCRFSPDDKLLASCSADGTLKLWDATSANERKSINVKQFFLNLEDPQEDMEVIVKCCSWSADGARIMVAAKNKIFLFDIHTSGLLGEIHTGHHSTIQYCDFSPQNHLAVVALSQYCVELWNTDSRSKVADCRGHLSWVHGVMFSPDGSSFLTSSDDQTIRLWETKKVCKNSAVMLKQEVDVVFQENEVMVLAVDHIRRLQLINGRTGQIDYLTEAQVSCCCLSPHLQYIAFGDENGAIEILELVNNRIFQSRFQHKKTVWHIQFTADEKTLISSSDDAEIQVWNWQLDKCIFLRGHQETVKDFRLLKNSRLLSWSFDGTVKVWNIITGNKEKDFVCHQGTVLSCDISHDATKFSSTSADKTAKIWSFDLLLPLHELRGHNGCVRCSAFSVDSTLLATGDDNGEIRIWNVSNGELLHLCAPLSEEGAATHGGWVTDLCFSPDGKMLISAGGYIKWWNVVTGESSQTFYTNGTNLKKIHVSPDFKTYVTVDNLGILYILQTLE
# [7] = biological target: T2, Sentrin-specific protease 1 (Homo sapiens, UniProt Q9P0U3); experiment: SENP1 catalytic domain blockers, concentration series – biochemical, kinetic FRET, dose response (AID 651697); type: functional; conditions: read-out: IC50_Mean
# T2 sequence (Q9P0U3 whole entry): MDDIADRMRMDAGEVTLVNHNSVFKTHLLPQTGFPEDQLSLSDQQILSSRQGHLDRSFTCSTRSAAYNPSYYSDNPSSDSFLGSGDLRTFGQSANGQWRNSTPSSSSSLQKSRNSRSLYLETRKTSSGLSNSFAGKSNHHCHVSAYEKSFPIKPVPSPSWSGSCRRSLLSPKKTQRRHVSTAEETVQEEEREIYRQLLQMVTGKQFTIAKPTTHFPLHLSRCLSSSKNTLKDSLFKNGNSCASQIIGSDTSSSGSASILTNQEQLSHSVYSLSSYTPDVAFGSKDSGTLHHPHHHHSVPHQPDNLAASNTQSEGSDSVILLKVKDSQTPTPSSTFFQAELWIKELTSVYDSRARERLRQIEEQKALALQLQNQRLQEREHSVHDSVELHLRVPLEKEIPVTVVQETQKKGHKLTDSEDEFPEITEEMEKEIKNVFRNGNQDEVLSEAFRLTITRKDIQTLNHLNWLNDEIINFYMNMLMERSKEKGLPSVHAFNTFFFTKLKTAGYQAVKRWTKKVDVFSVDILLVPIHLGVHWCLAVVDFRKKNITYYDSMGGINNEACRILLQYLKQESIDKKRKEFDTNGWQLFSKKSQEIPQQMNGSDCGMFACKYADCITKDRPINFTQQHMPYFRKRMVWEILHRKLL
# [8] = biological target: T2, Sentrin-specific protease 1; experiment: Dose response confirmation of small molecule inhibitors of the catalytic domain of the SUMO protease, SENP1 in a FRET assay.; type: functional; conditions: read-out: IC50_Mean
# [9] = Counterscreen for inhibitors of Trypanosoma brucei methionyl tRNA synthetase (MetRS): Luminescence-based cell-based high throughput dose response assay to identify compounds that are cytotoxic to Jurkat human T lymphocyte cells.; type: functional
# [10] = biological target: T3, Adenosylmethionine-8-amino-7-oxononanoate aminotransferase (Mycobacterium tuberculosis, UniProt P9WQ81); experiment: Mycobacterium tuberculosis BioA enzyme inhibitor Measured in Biochemical System Using Plate Reader - 2163-02_Inhibitor_Dose_CherryPick_Activity.; type: functional, Mycobacterium tuberculosis UT205
# T3 sequence (P9WQ81 whole entry): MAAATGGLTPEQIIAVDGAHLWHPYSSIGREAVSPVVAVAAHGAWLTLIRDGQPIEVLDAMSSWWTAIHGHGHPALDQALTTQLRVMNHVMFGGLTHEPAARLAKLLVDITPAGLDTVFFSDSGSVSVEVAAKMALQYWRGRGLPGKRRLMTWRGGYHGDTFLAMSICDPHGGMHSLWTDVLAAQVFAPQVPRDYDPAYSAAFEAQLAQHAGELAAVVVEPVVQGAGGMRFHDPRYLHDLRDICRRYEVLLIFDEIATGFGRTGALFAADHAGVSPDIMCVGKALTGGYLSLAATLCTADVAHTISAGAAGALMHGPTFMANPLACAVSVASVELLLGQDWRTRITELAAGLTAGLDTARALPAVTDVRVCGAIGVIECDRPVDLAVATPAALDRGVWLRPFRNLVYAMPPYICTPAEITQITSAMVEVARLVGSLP
# [11] = biological target: T4, DNA repair and recombination protein RAD54-like (Homo sapiens, UniProt Q92698); experiment: RAD54 Holliday junction migration blockers – biochemical, fluorescence, cherry-picked samples, dose series, confirmation (AID 651657); type: functional
# T4 sequence (Q92698 whole entry): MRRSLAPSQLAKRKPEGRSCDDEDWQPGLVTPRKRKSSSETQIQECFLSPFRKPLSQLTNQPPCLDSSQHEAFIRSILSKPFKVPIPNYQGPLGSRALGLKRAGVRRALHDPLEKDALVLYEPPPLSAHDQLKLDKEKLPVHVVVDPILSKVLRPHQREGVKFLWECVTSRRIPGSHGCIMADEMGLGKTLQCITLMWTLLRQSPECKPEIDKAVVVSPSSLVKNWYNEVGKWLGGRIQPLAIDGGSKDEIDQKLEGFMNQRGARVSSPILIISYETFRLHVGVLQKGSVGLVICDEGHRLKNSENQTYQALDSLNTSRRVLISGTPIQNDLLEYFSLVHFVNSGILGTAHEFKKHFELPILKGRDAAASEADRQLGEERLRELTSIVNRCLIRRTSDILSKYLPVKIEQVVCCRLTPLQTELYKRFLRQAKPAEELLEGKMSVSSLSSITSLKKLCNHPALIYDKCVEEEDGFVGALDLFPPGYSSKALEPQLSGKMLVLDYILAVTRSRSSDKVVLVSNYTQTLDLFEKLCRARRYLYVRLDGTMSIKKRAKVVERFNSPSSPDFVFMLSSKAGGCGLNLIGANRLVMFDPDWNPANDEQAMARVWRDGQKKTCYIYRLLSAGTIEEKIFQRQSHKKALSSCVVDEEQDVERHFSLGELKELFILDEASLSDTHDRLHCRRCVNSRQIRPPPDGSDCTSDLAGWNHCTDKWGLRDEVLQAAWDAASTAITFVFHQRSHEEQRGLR
# [12] = biological target: T5, Rac GTPase-activating protein 1 (Homo sapiens, UniProt Q9H0H5); experiment: blockers of MgcRacGAP-driven Rac1 GTP hydrolysis – biochemical, ADP Hunter fluorescence, primary and confirmatory, confirmation (AID 624330); type: functional
# T5 sequence (Q9H0H5 whole entry): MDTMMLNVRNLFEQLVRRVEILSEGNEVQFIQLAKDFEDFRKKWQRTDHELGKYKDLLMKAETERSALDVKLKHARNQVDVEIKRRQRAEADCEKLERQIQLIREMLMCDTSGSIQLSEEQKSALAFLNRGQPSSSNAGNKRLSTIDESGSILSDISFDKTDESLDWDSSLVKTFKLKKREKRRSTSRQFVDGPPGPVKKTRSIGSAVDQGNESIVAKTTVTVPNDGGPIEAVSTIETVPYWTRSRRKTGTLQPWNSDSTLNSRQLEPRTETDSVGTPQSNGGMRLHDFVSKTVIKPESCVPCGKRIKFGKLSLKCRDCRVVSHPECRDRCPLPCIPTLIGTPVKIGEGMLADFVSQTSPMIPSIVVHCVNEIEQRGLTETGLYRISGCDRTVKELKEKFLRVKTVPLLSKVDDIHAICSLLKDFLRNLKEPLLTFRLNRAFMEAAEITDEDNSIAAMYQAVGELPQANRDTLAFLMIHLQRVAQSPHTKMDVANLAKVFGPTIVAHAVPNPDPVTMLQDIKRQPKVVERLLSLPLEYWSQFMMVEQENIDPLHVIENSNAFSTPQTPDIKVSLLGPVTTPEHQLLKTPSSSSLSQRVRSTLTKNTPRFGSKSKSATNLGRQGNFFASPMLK
# [13] = NIH-3T3 fibroblast cytotoxicity, dose response, cytotoxicity control, cell-based, fluorescence, Alamar Blue, secondary assay (AID 2327); type: functional;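 also: NIH-3T3 mouse fibroblasts cultured with fluconazole at 8 µg/mL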
# [14] = fluconazole-exposed Candida albicans growth modulators – fluorescence, retest, confirmation (AID 2467); type: functional, cell-based
# [15] = luciferase reporter signal suppression in cells – H4 neuroglioma cells, luminescence, dose response (AID 1990); type: functional, cell-based
# [16] = Luminescence Cell-Based Dose Response HTS to Identify Inhibitors of 5'UTR Stem-Loop Driven Prion Protein mRNA Translation in H4 Neuroglioblastoma Cells. [Related pubchem assays: 1827 (Project Summary), 1813 (Primary HTS)]; type: functional
# [17] = alpha-synuclein stem-loop luciferase translation blockers – H4 neuroglioma cells, luminescence, confirmation (AID 1988); type: functional, cell-based
# [18] = microbe, parasite or virus in culture; type: functional; conditions: Mycobacterium tuberculosis
# [19] = biological target: T6, Ubiquitin-conjugating enzyme E2 N (Homo sapiens, UniProt P61088); type: functional;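 also: Dose-response confirmation in a TR-FRET assay detecting UBC13-driven polyubiquitin chain formation, inhibition measured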
# T6 sequence (P61088 whole entry): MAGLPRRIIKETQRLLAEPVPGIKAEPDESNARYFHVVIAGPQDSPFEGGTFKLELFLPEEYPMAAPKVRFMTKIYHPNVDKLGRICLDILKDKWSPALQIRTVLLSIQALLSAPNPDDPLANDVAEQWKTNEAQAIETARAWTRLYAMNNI
# [20] = system: INS1; experiment: INS-1E survival protection against cytokine death – cell-based, luminescence, retest, dose response (AID 449756); type: functional; conditions: Rattus norvegicus;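 also: cell death triggered by IL-1 beta plus TNF-alpha plus IFN-gamma mixture; protective hits raise ATP signal compared with cytokine alone wells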
# Chain of ADP-ribosylation factor GTPase-activating protein 1 (Q62848 whole entry): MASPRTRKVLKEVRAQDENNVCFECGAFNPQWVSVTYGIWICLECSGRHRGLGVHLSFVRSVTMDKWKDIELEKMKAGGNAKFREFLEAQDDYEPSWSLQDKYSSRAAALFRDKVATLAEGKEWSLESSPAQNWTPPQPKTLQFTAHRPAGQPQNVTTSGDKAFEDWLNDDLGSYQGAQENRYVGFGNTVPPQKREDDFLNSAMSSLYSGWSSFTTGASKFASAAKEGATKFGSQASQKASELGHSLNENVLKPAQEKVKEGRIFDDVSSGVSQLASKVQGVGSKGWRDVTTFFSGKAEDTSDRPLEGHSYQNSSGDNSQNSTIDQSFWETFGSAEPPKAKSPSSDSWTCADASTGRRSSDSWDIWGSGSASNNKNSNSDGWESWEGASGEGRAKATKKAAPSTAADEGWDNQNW
compound,measurement,setting,value
Nc1nc(/C=C/c2cccnc2)nc(-c2ccccc2O)n1,IC50,[1],165 µM (inactive)
COc1ccc(/C=N/NC(=O)CCn2cnc(-c3ccccc3)c2-c2ccccc2)cc1,EC50,[2],1.9 µM (active)
same,EC50,[3],46.3 µM (active)
same,EC50,[4],1.75 µM (active)
same,EC50,[5],1.68 µM (active)
same,IC50,[6],25.2 µM (active)
Nc1ccc2c(c1)C(=O)N(CC1CCCO1)C2=O (stereo not given),IC50,[7],11.1 µM (active)
same,IC50,[8],8.2 µM (active)
COc1ccc2[nH]c(=O)c(CNc3ccccc3OC)cc2c1,IC50,[6],51.4 µM (active)
O=c1[nH]c2cc3ccccc3cc2nc1-c1nnnn1Cc1ccccc1,IC50,[7],15.8 µM (active)
same,IC50,[8],7.19 µM (active)
O=C(Cc1ccc(Br)cc1)NNC(=O)Nc1ccc(Cl)cc1,IC50,[9],83.3 µM (inactive)
COc1ccc(-c2cc(NC=O)c3ncc(-c4cccc(C(=O)N(C)C)c4)n3c2)cn1,AC50,[10],11.2 µM (active)
Nc1c(C(=O)NCCN2CCOCC2)c2nc3ccccc3nc2n1-c1ccccc1,AC50,[11],52 µM (active)
COc1ccc(NC2CCCN(C(=O)c3ccc(C(C)=O)s3)C2)cc1 (stereo not given),AC50,[10],1.99 µM (active)
same,IC50,[12],80.9 µM (active)
COc1cc(/C=C/C(=O)Nc2cccnc2)cc(OC)c1OC,EC50,[13],> 160 µM (inactive)
same,EC50,[14],> 38 µM (not active)
same,AC50,[10],0.629 µM (active)
Cc1ccc(NC2=C(C(=O)c3ccccc3)N(C)S(=O)(=O)c3ccccc32)cc1,IC50,[7],26.2 µM (inactive)
same,IC50,[8],15.4 µM (active)
COc1ccc(CNC[C@@H](CCCCN(C)Cc2ccc(OC)cc2)N2C[C@H](c3ccccc3)N(CCc3ccc(Cl)c(Cl)c3)C(=O)C2=O)cc1,EC50,[15],> 120 µM (not active)
same,EC50,[16],> 120 µM (not active)
same,EC50,[17],9.63 µM (active)
same,CC50,[18],6.46 µM (active)
same,IC50,[19],> 20 µM (inactive)
same,IC50,[6],46.4 µM (active)
same,AC50,[20],7.7 µM (active)
COc1cc(OC)cc(C(=O)Nc2ccccc2-c2nnn(CC(=O)Nc3cc(C)on3)n2)c1,IC50,[1],72.6 µM (inactive)
O=C(c1ccc([N+](=O)[O-])o1)N(Cc1nnc(-c2ccccc2Cl)o1)C1CC1,IC50,[6],> 100 µM (inactive)
